From patent US7968516B2, “Treatment of multiple sclerosis and other autoimmune diseases by use of calpin inhibitors” (ProTor Pharma Corporation, priority 2004, dated 2011)
Where a SMILES comes first, the peptide text is derived from it. [ ]: non-standard residue; d: D form. Cya = N[CH](CS(=O)(=O)O)C(=O)O

Tests used:
[1] = cited from earlier work
EAE in rats = conditions: cited from earlier work
[2] = test system: cochlear and vestibular hair; conditions: cited from earlier work
[3] = test system: MOG aa35-55 induced EAE in C57BL/6J mice; test: Experiment 1: EAE clinical scores, CLA started at immunization; format: in vivo
Description: To induce EAE, 7-8 week-old female C57BL/6J mice (Jackson Laboratories, Bar Harbor, Md.) were used. Animals were housed according to IACUC regulations in an AAALAC certified facility. Each was injected subcutaneously (s.c.) at two sites on the flanks with 300 μg of myelin oligodendrocyte glycoprotein (MOG) peptide 35-55 in Complete Freund's Adjuvant (CFA) twice with a one week interval between injections, as previously reported (14). Pertussis toxin (PT) was given intraperitoneally on days 0 and 2 post-immunization. CLA was administered to 12 MOG/CFA immunized mice, i.p. at an initial dose of one mg/mouse, starting on the day of the second immunization, followed by 0.5 mg/mouse/day until the end of the experiment, which lasted 19 days. […]
Clinical evaluation: Mice were evaluated daily for clinical signs of disease for up to 19 days after inoculation. Clinical severity was assessed on a scale of 0-6 as follows: • […] abnormality • 1 ? mild hind limb weakness (some difficulty righting themselves when turned on their backs), sometimes associated with a weak or floppy tail. • 2 ? moderate hind limb weakness associated with a floppy tail. • 3 ? paralysis of hind limbs, sometimes more marked on one side, but no forelimb weakness. • 4 ? hind leg paralysis accompanied by forelimb weakness. • 5 ? quadriplegia; paralysis of both hind limbs and forelimbs. • 6 ? moribund or death. […]

[4] = test system: spinal cord axons of EAE mice; test: Experiment 4: axonal integrity by LFB staining; format: in vivo; conditions: day 30 post-immunization
From the text: Evaluation of axonal integrity using LFB staining: Spinal cord tissue was taken from mice at day 30 post-immunization, approximately 13 days into the chronic phase of EAE. Myelin is stained a blue color by LFB, and the appearance of a normal myelin-coated axon, taken from spinal cord tissue, is shown longitudinally in FIG. 8A.

[5] = test system: chinchillas exposed to 105 decibel SPL noise; test: Experiment 6: acoustic trauma, compound action potential (CAP) threshold shift; format: in vivo; conditions: 7 mg/kg/day i.p. for seven days; about 4 weeks after noise exposure
Description: (§1) Twelve chinchillas were divided into treatment and control groups (six animals each). The treatment groups received 7 mg/kg/day CLA i.p., for seven days. The control groups received an identical volume of PBS vehicle. Starting on day 0, all of the animals were exposed to a 105 decibel sound pressure level (SPL) noise with a frequency band centered on 4 kilohertz (kHz). The noise exposure lasted for 48 hours, ending two days after the beginning of the dose. Approximately 4 weeks after the noise exposure and dosing, the animals were anesthetized, tracheotimized, and placed upon a heating pad (37 degrees C.). A silver-ball electrode was attached to the round window of the left and right ears to record the compound action potential (CAP). CAP input functions were recorded at 0.5, 1, 2, 4, 8, 16 kHz tone burst levels generated by a digital-to-analog converter attached to a computer. The CAP threshold shift is the change in sound level required to generate an action potential at the electrode subsequent to noise exposure, and increases in the threshold shift reflect increased hearing loss. […] After the CAP threshold shifts were measured, the animals were decapitated, and the cochleae were removed. The hair cells from 11 cochleae were evaluated histologically. […] The numbers of outer hair cells (#OHC) were counted as a function of the distance from the apex of the cochlea. […]

[6] = test system: MOG aa35-55 induced EAE in C57BL/6J mice; test: Experiment 3: EAE clinical scores, CLA twice daily after disease process started; format: in vivo
Description: (§2) Clinical evaluation: Mice were evaluated daily for clinical signs of disease for up to 19 days after inoculation. Clinical severity was assessed on a scale of 0-6 as follows: • […] abnormality • 1 ? mild hind limb weakness (some difficulty righting themselves when turned on their backs), sometimes associated with a weak or floppy tail. • 2 ? moderate hind limb weakness associated with a floppy tail. • 3 ? paralysis of hind limbs, sometimes more marked on one side, but no forelimb weakness. • 4 ? hind leg paralysis accompanied by forelimb weakness. • 5 ? quadriplegia; paralysis of both hind limbs and forelimbs. • 6 ? moribund or death.
To induce EAE, mice were each inoculated once with MOG aa35-55 in Complete Freund's Adjuvant (CFA) and Pertussis toxin as previously described. Thirty 7 to 8-week-old female C57BL/6J mice (Jackson Laboratories, Bar Harbor, Mass.) were used in this experiment. […] Controls included two groups of 4 mice for CLA only and CFA/PT only and 4 were left as normal controls. CLA was dissolved in PBS and each mouse in the treatment group was injected i.p. with 200 μl of PBS containing 0.5 mg of CLA every 12 hours until the end of the experiment on day 25 pi. Mice were evaluated daily for clinical signs and symptoms of EAE and graded on a 0-6 scale for up to 25 days after inoculation as detailed above. Scores of asymptomatic mice (score=0) were included in the calculation of the daily mean clinical score for each group.

calpain = test: Experiment 2: immunofluorescent staining for calpain, CD11b and CD45 in spinal cord white matter; format: in vivo; conditions: untreated versus CLA-treated EAE mice
Description: Expression of Calpain in Spinal Cord White Matter: Expression of calpain was determined in spinal cord tissues collected from all experimental and control groups of mice at the end of the experiment. Sections of paraformaldehyde-fixed tissues were stained with antibodies against calpain (FITC conjugated), CD11b (MΦ/microglia marker)(Texas Red-conjugated) and CD45 (leukocyte common antigen) (FITC-conjugated). Referring to FIG. 5, six 10 μm sections were stained with anti-calpain antibody and specific cell marker antibodies (CD45, CD11b). Positive staining for calpain (A, B, C); cells positive for MΦ/microglia marker (CD11b^+) (D, E, F); cells positive for leukocyte common antigen (CD 45^+)(G, H, I). 20× magnification. […] All leukocytes including MΦ, but not microglia, are stained with CD45.

[7] = test system: amyloid precursor protein (APP); test: Experiment 4: accumulation of amyloid precursor protein in axons; format: in vivo, mice; conditions: spinal cord, day 30, anti-APP antibody
From the text: Spinal cord tissue taken from mice at day 30 was stained with a fluorescently-labeled anti-APP antibody.

[8] = test system: spinal cord white matter of EAE mice; test: Experiment 2: Luxol Fast Blue staining, myelin content of spinal cord; format: in vivo; conditions: lumbar spinal cord, CLA-treated EAE mice
Description: Luxol Fast Blue (LFB) Staining of Spinal Cord Tissues: This staining method, which identifies changes in myelin content of CNS tissues, was performed as previously described (39). Six-10 μm tissue sections were prepared from the lumbar spinal cords of all mice at the end of the experiment. The sections were stained with LFB and counterstained with eosin and cresyl violet to observe changes in the myelin content of the control and treatment groups: A: CFA control; B: MOG/CFA immunized: C; MOG/CFA immunized and CLA-treated. 20× magnification. All myelin containing regions stain blue.

[9] = test system: outer hair cells of the cochlea; test: Experiment 6: acoustic trauma, outer hair cell counts; format: in vivo, chinchillas; conditions: 7 mg/kg/day i.p. for seven days; as a function of distance from apex of cochlea
Description: as §1

[10] = test system: spinal cord white matter of EAE mice; test: Experiment 2: H&E staining, cellular infiltration of spinal cord white matter; format: in vivo; conditions: CLA-treated EAE mice, tissues at end of experiment
Description: Hematoxylin and Eosin Staining (H&E): H&E staining was used to show cellular infiltration of spinal cord white matter in mice with acute EAE in comparison with other groups of CFA control and CLA-treated EAE mice, as previously described (14). All staining was performed on tissues that were collected at the end of the experiment. In FIG. 3, 6-10 μm tissue sections were prepared from spinal cords of all mice at the end of the experiment. These tissues were stained with H&E to show inflammatory infiltration (indicated by arrows). A: CFA control; B: MOG/CFA immunized; C: MOG/CFA immunized and CLA-treated. 20× magnification.

[11] = Experiment 7: plasma and retina concentrations after oral CLA-acetal; format: in vivo, Sprague-Dawley rats; conditions: after 10 mg/kg oral CLA-acetal
Description: Male Sprague-Dawley rats (n=5 per time point, weight 200-250 g) were administer 10 mg/kg CLA-acetal by oral gavage, formulated as a 0.6% solution in phosphate-buffered saline. At 0.1, 0.25, 0.5, 1, 2, 4, 8, 12 and 24 hours, the rats were anesthetized, blood samples were collected, and the retinas were isolated. The plasma samples (200 μL) were treated with 1 mL methanol and centrifuged to remove protein. The supernatants from centrifugation were evaporated, and the residue was taken up in 0.02% aqueous ammonium heptafluorobutyrate (1 mL). The retina samples were homogenized, treated with methanol, centrifuged, and evaporated, and the residue was taken up in 0.02% aqueous ammonium heptafluorobutyrate (1 mL). The plasma and retinal concentrations of CLA and CLA-acetal were determined by liquid chromatography followed by turbo ion spray mass spectrometry on an MDS-Sciex API 4000 triple-quadropole mass spectrometer equipped with a turbo ion spray source. Elution peaks yielding ions corresponding to CLA or CLA-acetal were integrated and used to determine the amount of compound present, by reference to standards. Data reduction was performed using Sciex Analyst version 1.3 software. The peak concentrations (Cmax) were estimated from the concentrations of CLA measured over time.

[12] = test system: chronic phase of EAE in C57BL/6J mice; test: Experiment 4: chronic phase EAE clinical scores; format: in vivo; conditions: 30 days
Description: as §2
The chronic phase of EAE occurs after the clinical score of an affected mouse reaches a plateau at the highest level of the acute phase of the disease. In this chronic phase, more extensive damage occurs to nerve axons, beyond the demyelination observed in the acute phase of the disease (22). EAE was induced in 7-8 week-old female C57BL/6J “mice” by subcutaneous (s.c.) injection in each flank with 100 μl of an emulsion containing […] Freund's Adjuvant supplemented with 500 μg heat inactivated mycobacterium tuberculosis (Sigma St. Louis, Mo.) and 300 μg MOG 35-55. 100 ng of Pertussis toxin (PT) was given intraperitoneally on days 0 and 2 post-immunization. […]

[13] = CLA 0.5 mg i.p. every 12 hours from day 7 pi
[14] = CLA twice daily started after signs of stage 2 EAE

For `CC(=O)N[C@@H](CC(C)C)C(=O)N[C@@H](CC(C)C)C(=O)N[C@H](C=O)CCCNC(=N)N` [leupeptin], the cellular permeability [1] is listed as “poor cellular permeability”, the “suppression of EAE” value (EAE in rats) is listed as “suppressing EAE” and the “protection from gentamycin ototoxicity” value [2] is listed as “protects cochlear and vestibular hair from gentamycin oxotoxicity”.
With `CC(C)CC(NC(=O)C(N)CS(=O)(=O)O)C(=O)NC(C=O)CCCNC(=N)N` (stereo not drawn) [CLA, cysteyl-leucyl-argininal] (H-[Cya]-Leu-Arg-aldehyde; configuration not given here) the “average clinical score (ACS)” value ([3]; MOG/CFA immunized mice, CLA i.p. one mg/mouse then 0.5 mg/mouse/day, scale 0-6, 19 days) was 1.86, the “effect of CLA only or CFA/CLA on mice” value ([3]; control mice not immunized with MOG) was “no effect” and the “axonal integrity (LFB staining)” value [4] was “marked improvement in axonal integrity”. The CAP threshold shift [5] was “decreased the CAP threshold shift”, the “onset of signs of EAE” value [6, 13] was 15 day pi and the “severity of EAE symptoms” value [6, 13] was “did not develop severe paralysis of the limbs”. For the same compound, the “average clinical score (ACS) on day 17 pi” value [6, 14] was 1.60, the “clinical score on day 25 pi” value [6, 14] was “less than two” and the “clinical score on day 25 pi” value ([6]; D7 CLA-treated MOG/CFA mice) was “less than one”. For the same compound, the “average clinical score (ACS) on day 17 pi” value ([6]; D7 CLA-treated MOG/CFA mice, 0.5 mg i.p. every 12 hours) was 0.5, the “health of CLA only mice” value ([6]; control mice, CLA only) was “remained healthy” and the “CD45+ cells (leukocytes)” value (calpain) was “only marginally higher than CLA-treated EAE mice”. For the same compound, the “expression of calpain in spinal cord white matter” value (calpain) was “elevated in untreated EAE mice (FIG. 5B) as compared with CLA-treated EAE mice”, the “presence of macrophages/microglia (CD11b+ cells)” value (calpain) was “higher in untreated EAE mice (FIG. 5E) than CLA-treated EAE” and the “accumulation of APP in axons” value [7] was “reduces accumulation of APP”. For the same compound, the “demyelination (LFB staining)” value [8] was “fewer areas of demyelination”, the “numbers of outer hair cells (#OHC)” value [9] was “increase in the number of outer hair cells at all distances from the apex” and the “cellular infiltration and perivascular cuffing (H&E)” value [10] was “moderate cellular infiltration and perivascular cuffing”. The “concentrations in retina compared with plasma” value [11] was “much higher in retina than in plasma”, the maximum clinical score ([12]; CLA 2 mg/mouse/day i.p. from day 7 (prior to onset)) was “below 0.5” and the maximum clinical score ([12]; CLA 2 mg/mouse/day i.p. from day 12 (after onset)) was under 1.0.
